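Exposure lasted 48 hours, with cells grown in 96-well plates and compounds tested at five concentrations. Abbreviation: GI50, concentration required for 50% inhibition of growth. Definition used: TGI = concentration required for complete inhibition of growth.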
Legend:
Assay in all cases: growth of human tumour cells (NCI), 48 h
786-0 renal = tested on: 786-0 renal
HCT-116 colon = tested on: HCT-116 colon
BT-549 breast = tested on: BT-549 breast
EKVX NSCLC = tested on: EKVX NSCLC
DU-145 prostate = tested on: DU-145 prostate
RXF 393 renal = tested on: RXF 393 renal
CAKI-1 renal = tested on: CAKI-1 renal
RPMI-8226 leukemia = tested on: RPMI-8226 leukemia
UACC-257 melanoma = tested on: UACC-257 melanoma
SK-MEL-28 melanoma = tested on: SK-MEL-28 melanoma
OVCAR-8 ovarian = tested on: OVCAR-8 ovarian
OVCAR-5 ovarian = tested on: OVCAR-5 ovarian
NCI-H460 lung = tested on: NCI-H460 lung
OVCAR-4 ovarian = tested on: OVCAR-4 ovarian
SK-MEL-2 melanoma = tested on: SK-MEL-2 melanoma
COLO 205 colon = tested on: COLO 205 colon
SF-268 CNS = tested on: SF-268 CNS
SNB-19 CNS = tested on: SNB-19 CNS
PC-3 prostate = tested on: PC-3 prostate
TK-10 renal = tested on: TK-10 renal
SK-MEL-5 melanoma = tested on: SK-MEL-5 melanoma
HOP-62 NSCLC = tested on: HOP-62 NSCLC
HOP-92 NSCLC = tested on: HOP-92 NSCLC
M14 melanoma = tested on: M14 melanoma
NCI/ADR-RES ovarian = tested on: NCI/ADR-RES ovarian
A498 renal = tested on: A498 renal
SF-295 CNS = tested on: SF-295 CNS
SN12C renal = tested on: SN12C renal
LOX IMVI melanoma = tested on: LOX IMVI melanoma
SNB-75 CNS = tested on: SNB-75 CNS
SK-OV-3 ovarian = tested on: SK-OV-3 ovarian
IGROV1 ovarian = tested on: IGROV1 ovarian
NCI-H522 lung = tested on: NCI-H522 lung
NCI-H226 lung = tested on: NCI-H226 lung
UACC-62 melanoma = tested on: UACC-62 melanoma
T-47D breast = tested on: T-47D breast
SF-539 CNS = tested on: SF-539 CNS
ACHN renal = tested on: ACHN renal
HS 578T breast = tested on: HS 578T breast
MDA-MB-435 = tested on: MDA-MB-435
SW-620 colon = tested on: SW-620 colon
UO-31 renal = tested on: UO-31 renal

`OC1CCN(CCCOc2c3ccccc3nc3c2oc2ccc(Cl)cc23)CC1` showed a GI50 (786-0 renal) of 1.08 µM, a TGI (786-0 renal) of 3.61 µM and a GI50 (HCT-116 colon) of 0.414 µM. The TGI (HCT-116 colon) was 2.36 µM, the GI50 (BT-549 breast) was 3.04 µM and the TGI (BT-549 breast) was 10.1 µM. For the same molecule, the GI50 (EKVX NSCLC) was 2.41 µM, the TGI (EKVX NSCLC) was 13.2 µM and the GI50 (DU-145 prostate) was 1.06 µM. It also gave a TGI (DU-145 prostate) of 3.57 µM, a GI50 (RXF 393 renal) of 1.02 µM and a TGI (RXF 393 renal) of 2.31 µM. For the same molecule, the GI50 (CAKI-1 renal) was 0.71 µM, the TGI (CAKI-1 renal) was 2.29 µM and the GI50 (RPMI-8226 leukemia) was 1.33 µM. It also gave a TGI (RPMI-8226 leukemia) of 4.03 µM, a GI50 (UACC-257 melanoma) of 1.75 µM and a TGI (UACC-257 melanoma) of 3.53 µM. For the same molecule, the GI50 (SK-MEL-28 melanoma) was 1.64 µM, the TGI (SK-MEL-28 melanoma) was 3.1 µM and the GI50 (OVCAR-8 ovarian) was 0.991 µM. For the same molecule, the TGI (OVCAR-8 ovarian) was 11.9 µM, the GI50 (OVCAR-5 ovarian) was 1.71 µM and the TGI (OVCAR-5 ovarian) was 6.04 µM. The GI50 (NCI-H460 lung) was 0.44 µM, the TGI (NCI-H460 lung) was 1.85 µM and the GI50 (OVCAR-4 ovarian) was 1.23 µM. For the same molecule, the TGI (OVCAR-4 ovarian) was 3.66 µM, the GI50 (SK-MEL-2 melanoma) was 2.45 µM and the TGI (SK-MEL-2 melanoma) was 5.99 µM. The GI50 (COLO 205 colon) was 0.755 µM, the TGI (COLO 205 colon) was 2.21 µM and the GI50 (SF-268 CNS) was 1.08 µM. For the same molecule, the TGI (SF-268 CNS) was 10 µM, the GI50 (SNB-19 CNS) was 1.4 µM and the TGI (SNB-19 CNS) was 18.2 µM. It also gave a GI50 (PC-3 prostate) of 1.28 µM, a TGI (PC-3 prostate) of 4.04 µM and a GI50 (TK-10 renal) of 2.75 µM. The TGI (TK-10 renal) was 18.3 µM, the GI50 (SK-MEL-5 melanoma) was 1.78 µM and the TGI (SK-MEL-5 melanoma) was 3.25 µM. It also gave a GI50 (HOP-62 NSCLC) of 1.74 µM, a TGI (HOP-62 NSCLC) of 7.57 µM and a GI50 (HOP-92 NSCLC) of 0.713 µM. It also gave a TGI (HOP-92 NSCLC) of 5.04 µM, a GI50 (M14 melanoma) of 1.45 µM and a TGI (M14 melanoma) of 3.69 µM. It also gave a GI50 (NCI/ADR-RES ovarian) of 0.579 µM, a TGI (NCI/ADR-RES ovarian) of 4.91 µM and a GI50 (A498 renal) of 2.53 µM. It also gave a TGI (A498 renal) of 7.59 µM, a GI50 (SF-295 CNS) of 1.49 µM and a TGI (SF-295 CNS) of 6.45 µM. For the same molecule, the GI50 (SN12C renal) was 0.883 µM, the TGI (SN12C renal) was 17.2 µM and the GI50 (LOX IMVI melanoma) was 0.372 µM. For the same molecule, the TGI (LOX IMVI melanoma) was 1.52 µM, the GI50 (SNB-75 CNS) was 1.97 µM and the TGI (SNB-75 CNS) was 10.9 µM. It also gave a GI50 (SK-OV-3 ovarian) of 2.42 µM, a TGI (SK-OV-3 ovarian) of 7.07 µM and a GI50 (IGROV1 ovarian) of 1.25 µM. It also gave a TGI (IGROV1 ovarian) of 6.28 µM, a GI50 (NCI-H522 lung) of 1.11 µM and a TGI (NCI-H522 lung) of 2.73 µM. For the same molecule, the GI50 (NCI-H226 lung) was 1.72 µM, the TGI (NCI-H226 lung) was 3.75 µM and the GI50 (UACC-62 melanoma) was 1.99 µM. It also gave a TGI (UACC-62 melanoma) of 4.82 µM, a GI50 (T-47D breast) of 3.54 µM and a TGI (T-47D breast) of 20.7 µM. For the same molecule, the GI50 (SF-539 CNS) was 1.07 µM, the TGI (SF-539 CNS) was 2.3 µM and the GI50 (ACHN renal) was 0.534 µM. The TGI (ACHN renal) was 10.3 µM, the GI50 (HS 578T breast) was 2.28 µM and the TGI (HS 578T breast) was 13.4 µM. For the same molecule, the GI50 (MDA-MB-435) was 1.23 µM, the TGI (MDA-MB-435) was 2.56 µM and the GI50 (SW-620 colon) was 0.444 µM. For the same molecule, the TGI (SW-620 colon) was 2.09 µM, the GI50 (UO-31 renal) was 1.23 µM and the TGI (UO-31 renal) was 3.29 µM.

— PubChem BioAssay (NCI)
